# Experiment: in vitro
# Details: human, hela cells, % viability
smiles,measurement,value
O=C(NCCCN1CCOCC1)NC(=O)c1ccc(Cl)cc1 [CBK269531],"viability at 28.5 h, 10 µM",96.4%
CCN1CCN(c2ccc(NC(=O)Cn3cnc4c(=O)n(C)c(=O)n(C)c43)cc2Cl)CC1 [CBK269535],"viability at 28.5 h, 10 µM",94.3%
COc1cc(CNc2nn[nH]n2)ccc1OCc1ccc(F)cc1Cl [CBK269536],"viability at 28.5 h, 10 µM",90.6%
CCN(CC(=O)NCc1ccncc1)S(=O)(=O)c1ccccc1 [CBK269537],"viability at 28.5 h, 10 µM",88.7%
CCCCn1cnc2c(c1=O)c1nc3ccccc3nc1n2CCc1ccc(OC)cc1 [CBK269538],"viability at 28.5 h, 10 µM",85.7%
O=C(COc1ccc(S(=O)(=O)N2CCCCC2)cc1Cl)Nc1ccc2c(c1)OCCO2 [CBK269540],"viability at 28.5 h, 10 µM",97%
O=C(CC(C(=O)O)n1cccn1)c1ccc(Br)cc1 (stereo not shown) [CBK269541],"viability at 28.5 h, 10 µM",90.8%
COc1cc(CNC(C)(C)CO)c(Cl)cc1OC(C)C [CBK269542],"viability at 28.5 h, 10 µM",89.9%
Cc1cccnc1NC(=O)c1ccc(NCCc2ccccc2)c([N+](=O)[O-])c1 [CBK269543],"viability at 28.5 h, 10 µM",96.1%
CCN(CC(=O)NCc1ccccn1)S(=O)(=O)c1ccccc1 [CBK269546],"viability at 28.5 h, 10 µM",90.2%
Cc1cc2c(cc1C)NC(CC(=O)Nc1cccc(Br)c1)C(=O)N2 (stereo not shown) [CBK269548],"viability at 28.5 h, 10 µM",73.3%
CCn1c(CCCNC=O)nc2ccccc21 [CBK269551],"viability at 28.5 h, 10 µM",86.2%
COc1ccc(N2CCN(Cc3nc4c(c(=O)n(C)c(=O)n4C)n3Cc3cccc(C)c3)CC2)cc1 [CBK269552],"viability at 28.5 h, 10 µM",78.4%
CCc1ccc(C(=O)NC(Cc2c[nH]c3ccccc23)C(=O)O)cc1 (stereo not shown) [CBK269556],"viability at 28.5 h, 10 µM",101%
Cn1c(=O)c2c(nc(CN3CCN(c4ccccc4)CC3)n2Cc2ccccc2)n(C)c1=O [CBK269557],"viability at 28.5 h, 10 µM",85.1%
O=C(C1CCN(S(=O)(=O)c2ccc3ccccc3c2)CC1)N1CCC(Cc2ccccc2)CC1 [CBK269558],"viability at 28.5 h, 10 µM",83%
CNc1nc(SCC(=O)Nc2ccc(Cl)c(Cl)c2)nc(N2CCOCC2)n1 [CBK269559],"viability at 28.5 h, 10 µM",85.3%
Cn1c(=O)c2c(nc(CN3CCOCC3)n2CCN2CCOCC2)n(C)c1=O [CBK269560],"viability at 28.5 h, 10 µM",106%
COc1ccccc1NC(=O)C(c1ccccc1)N1CCOCC1 (stereo not shown) [CBK269561],"viability at 28.5 h, 10 µM",107%
Clc1ccc(-c2ccc(CNCCCN3CCOCC3)o2)cc1 [CBK269562C],"viability at 28.5 h, 10 µM",90.5%
Cn1c(=O)c2c(nc(CN3CCCCC3)n2CC(=O)c2ccccc2)n(C)c1=O [CBK269563],"viability at 28.5 h, 10 µM",87.1%
c1ccc(-c2nc3sc4c(ncn5cnnc45)c3c3c2CCC3)cc1 [CBK269566],"viability at 28.5 h, 10 µM",84.3%
COc1cc(CNC23CC4CC(CC(C4)C2)C3)c(Cl)cc1OCC(=O)O [CBK269567],"viability at 28.5 h, 10 µM",87.6%
COc1ccc(Cl)cc1S(=O)(=O)N1CCC(C(N)=O)(N2CCCCC2)CC1 [CBK269571],"viability at 28.5 h, 10 µM",97.9%
Cc1ccc(C(=O)C2=C(O)C(=O)N(CCCN(C)C)C2c2ccccn2)o1 (stereo not shown) [CBK269575],"viability at 28.5 h, 10 µM",89.1%
O=C(C1=C(O)C(=O)N(CCN2CCOCC2)C1c1ccccn1)c1cc2ccccc2o1 (stereo not shown) [CBK269576],"viability at 28.5 h, 10 µM",107%
CN1CCN(Cc2nc3c([nH]2)c(=O)n(C)c(=O)n3C)CC1 [CBK269578],"viability at 28.5 h, 10 µM",104%
CC(C)CNc1nc(SCC(N)=O)nc(N(C)C)n1 [CBK269579],"viability at 28.5 h, 10 µM",93.8%
CC(=O)CSc1nc2c(c(=O)n(C)c(=O)n2C)n1CCCc1ccccc1 [CBK269581],"viability at 28.5 h, 10 µM",84.6%
Cn1c(=O)c2c(nc(CN3CCN(Cc4ccccc4)CC3)n2CCCc2ccccc2)n(C)c1=O [CBK269582],"viability at 28.5 h, 10 µM",90.9%
Cc1ccc(Cn2c(CN3CCOCC3)nc3c2c(=O)n(C)c(=O)n3C)cc1 [CBK269583],"viability at 28.5 h, 10 µM",91.1%
CC(C)(C)NC(=O)Cn1cnc2c(cnn2-c2ccccc2)c1=O [CBK269586],"viability at 28.5 h, 10 µM",91.6%
N#Cc1ccccc1CSc1nc2ccc([N+](=O)[O-])cc2[nH]1 [CBK269589],"viability at 28.5 h, 10 µM",84.5%
Cc1ccc2cc(CN(CC(C)C)S(C)(=O)=O)c(O)nc2c1 [CBK269593],"viability at 28.5 h, 10 µM",101%
COc1cc(NC(=O)c2cc3c4c(sc3nc2N)CN(C)CC4)c(OC)c(OC)c1 [CBK269597],"viability at 28.5 h, 10 µM",77.1%
COC(=O)Cn1c(CN2CCN(c3cccc(Cl)c3)CC2)nc2c1c(=O)n(C)c(=O)n2C [CBK269598],"viability at 28.5 h, 10 µM",86.7%
O=C(Nc1sc2c(c1C(=O)NCc1cccnc1)CCC2)c1ccco1 [CBK269599],"viability at 28.5 h, 10 µM",81%
CS(=O)(=O)c1ncc(Cl)c(C(=O)N(Cc2ccccc2)Cc2ccco2)n1 [CBK269603],"viability at 28.5 h, 10 µM",29.3%
CCCC(=O)Nc1cccc(NC(=O)c2nc[nH]n2)c1 [CBK269604],"viability at 28.5 h, 10 µM",104%
CCOC(=O)Cn1nc([N+](=O)[O-])c(Cl)c1C [CBK269605],"viability at 28.5 h, 10 µM",86.4%
COc1ccccc1N1CC(C(=O)Nc2ccc(C(=O)O)cc2)CC1=O (stereo not shown) [CBK269606],"viability at 28.5 h, 10 µM",84.9%
CCC(=O)Nc1nonc1-c1nc2ccccc2n1Cc1ccc(F)cc1Cl [CBK269608],"viability at 28.5 h, 10 µM",84.1%
CCN1CCN(S(=O)(=O)c2cccc3c(S(=O)(=O)N4CCN(CC)CC4)cccc23)CC1 [CBK269611],"viability at 28.5 h, 10 µM",90.4%
Cc1ccc(S(=O)(=O)c2nc(NCCN3CCOCC3)sc2Cl)cc1 [CBK269615],"viability at 28.5 h, 10 µM",79.7%
Cc1cc(OC(C)C(=O)NCc2ccccn2)ccc1Cl (stereo not shown) [CBK269617],"viability at 28.5 h, 10 µM",110%
O=C(O)c1ccc(CNCc2ccc(-c3ccc(Cl)cc3)o2)cc1 [CBK269619C],"viability at 28.5 h, 10 µM",94.7%
O=C(Nc1cccnc1)C1CCN(S(=O)(=O)c2ccc(Oc3ccccc3)cc2)CC1 [CBK269621],"viability at 28.5 h, 10 µM",81.8%
CC(=O)N1CCN(c2ccc(NC(=O)c3cccc4c(Br)cccc34)cc2Cl)CC1 [CBK269624],"viability at 28.5 h, 10 µM",93.8%
CN1CCN(C(=O)CN(CC(=O)N2CCN(C)CC2)S(=O)(=O)c2ccc(Cl)cc2)CC1 [CBK269627],"viability at 28.5 h, 10 µM",96.6%
Cn1c(COc2ccccc2)nnc1SCc1nnc(-c2ccccc2)o1 [CBK269628],"viability at 28.5 h, 10 µM",94.1%
CN1CCN(CCCOc2ccccc2OCc2ccccc2)CC1 [CBK269630C],"viability at 28.5 h, 10 µM",90.4%
Cc1ccc(SCCN2CCN(C)CC2)cc1 [CBK269631C],"viability at 28.5 h, 10 µM",89.2%
Cc1ccnc(SCc2c(Cl)cccc2[N+](=O)[O-])n1 [CBK269632],"viability at 28.5 h, 10 µM",86%
COc1ccc(CNc2cccc(C(=O)O)c2C)cc1OC [CBK269634],"viability at 28.5 h, 10 µM",109%
CC(Oc1ccccc1)C(=O)Nc1ccccc1NC(=O)c1ccco1 (stereo not shown) [CBK269636],"viability at 28.5 h, 10 µM",88.4%
Cn1c(SCc2nnc(-c3ccccc3)o2)nnc1C(O)c1ccccc1 (stereo not shown) [CBK269640],"viability at 28.5 h, 10 µM",92.3%
COC(=O)c1cccc(COC(=O)c2ccc3nc(C)c(C)nc3c2)c1 [CBK269641],"viability at 28.5 h, 10 µM",95.2%
CC(NC(=O)c1ccccc1)c1nnc(SCC(=O)N2CCOCC2)n1C (stereo not shown) [CBK269647],"viability at 28.5 h, 10 µM",86%
COc1ccc(C)cc1S(=O)(=O)N(CC(=O)O)c1ccc(C)c(Cl)c1 [CBK269655],"viability at 28.5 h, 10 µM",83.3%
Cc1ccc(S(=O)(=O)N2CCOCC2)cc1C(=O)NCCc1ccccc1 [CBK269658],"viability at 28.5 h, 10 µM",99%
Cc1cccc(-c2nnc(-c3cccc(NC(=O)COc4ccccc4)c3)o2)c1 [CBK269659],"viability at 28.5 h, 10 µM",95.8%
COc1ccc(NC(=O)c2ccc3c(c2)C(=O)N(Cc2ccncc2)C3=O)cc1 [CBK269660],"viability at 28.5 h, 10 µM",97.7%
Cc1nc2ccc(C(=O)OCc3ccc(S(=O)(=O)Cc4ccccc4)cc3)cc2nc1C [CBK269661],"viability at 28.5 h, 10 µM",97.6%
O=C(Nc1cccnc1)c1cccnc1C(=O)O [CBK269663],"viability at 28.5 h, 10 µM",90.1%
O=C(Nc1ccc(S(=O)(=O)NCc2ccncc2)cc1)c1ccccc1Cl [CBK269664],"viability at 28.5 h, 10 µM",91.5%
Cc1cc(Cl)cc(Br)c1OCCN1CCN(C)CC1 [CBK269668C],"viability at 28.5 h, 10 µM",93.9%
FC(F)(F)c1cccc(OCCN2CCOCC2)c1 [CBK269669C],"viability at 28.5 h, 10 µM",96.8%
COc1ccc([N+](=O)[O-])cc1CSc1nnc(-c2ccco2)n1C [CBK269671],"viability at 28.5 h, 10 µM",89.3%
OCc1ccc(OCCCOc2cccc3cccnc23)cc1 [CBK269674],"viability at 28.5 h, 10 µM",85.8%
Cc1cc(C)cc(OCC(=O)Nc2ccc3[nH]c(=O)[nH]c3c2)c1 [CBK269676],"viability at 28.5 h, 10 µM",99.5%
Cc1ccc(S(=O)(=O)N2CCOCC2)cc1C(=O)NCc1ccco1 [CBK269677],"viability at 28.5 h, 10 µM",102%
CCn1c(SCC(=O)Nc2cc(Cl)ccc2O)nnc1-c1ccccc1 [CBK269680],"viability at 28.5 h, 10 µM",87.4%
COc1cc(CNCCO)cc(Br)c1OCc1cccnc1 [CBK269681C],"viability at 28.5 h, 10 µM",100%
COc1cccc(CNc2ccc3c4c(cccc24)CC3)c1OC [CBK269688],"viability at 28.5 h, 10 µM",92.5%
CN1CCN(c2ccc(NC(=O)c3cccc(-c4cc5ccccc5oc4=O)c3)cc2Cl)CC1 [CBK269689],"viability at 28.5 h, 10 µM",83.5%
CN1CCN(CCCCOc2ccc(Cc3ccccc3)cc2)CC1 [CBK269692C],"viability at 28.5 h, 10 µM",91.6%
COc1cc(OC)c(NC(=O)C(C)Oc2ccc(Cl)c(C)c2)cc1Cl (stereo not shown) [CBK269697],"viability at 28.5 h, 10 µM",89.7%
O=C(CSc1ccc2ccccc2c1)NCc1ccco1 [CBK269699],"viability at 28.5 h, 10 µM",80.3%
O=C(Nc1cc(-c2nc3ncccc3o2)ccc1Cl)c1cccnc1 [CBK269700],"viability at 28.5 h, 10 µM",90.8%
O=C(CSc1ccc(Br)cc1)NCc1ccco1 [CBK269701],"viability at 28.5 h, 10 µM",86.5%
CC(C)C(=O)NC(=S)Nc1ccc2oc(-c3ccncc3)nc2c1 [CBK269702],"viability at 28.5 h, 10 µM",96.4%
CN(Cc1ccccc1)C1(O)C(=O)Nc2ccc(Cl)cc21 (stereo not shown) [CBK269703],"viability at 28.5 h, 10 µM",95.9%
Cc1cc(Cl)c(S(=O)(=O)N(C)C)cc1OCC(=O)Nc1ccccc1 [CBK269705],"viability at 28.5 h, 10 µM",89%
Nc1cc(C(=O)c2ccc(Br)c(N)c2)ccc1Cl [CBK269708],"viability at 28.5 h, 10 µM",86.6%
O=C(Oc1ccc2c(c1)OCO2)c1cc(S(=O)(=O)N2CCOCC2)c(Cl)cc1Cl [CBK269709],"viability at 28.5 h, 10 µM",101%
Cc1c(NC(=S)NC(=O)C(C)C)cccc1-c1nc2ncccc2o1 [CBK269712],"viability at 28.5 h, 10 µM",98.3%
COc1cccc(CNc2ccc(-c3nc4ncccc4o3)cc2)c1OC [CBK269716],"viability at 28.5 h, 10 µM",91%
Cc1ccc(-c2nnc(COc3ccc(-c4cnc5ccccc5n4)cc3)o2)cc1 [CBK269721],"viability at 28.5 h, 10 µM",90.9%

# Source: article PMC12040169 (PLOS Biology, 2025)
